The values that follow come from patent publication US20230115176A1 (Ra Pharmaceuticals, Inc., priority 2019, published 2023).

One may read the IC50 as the midpoint of a concentration-inhibition curve.

T1 sequence (P01031 19-1676): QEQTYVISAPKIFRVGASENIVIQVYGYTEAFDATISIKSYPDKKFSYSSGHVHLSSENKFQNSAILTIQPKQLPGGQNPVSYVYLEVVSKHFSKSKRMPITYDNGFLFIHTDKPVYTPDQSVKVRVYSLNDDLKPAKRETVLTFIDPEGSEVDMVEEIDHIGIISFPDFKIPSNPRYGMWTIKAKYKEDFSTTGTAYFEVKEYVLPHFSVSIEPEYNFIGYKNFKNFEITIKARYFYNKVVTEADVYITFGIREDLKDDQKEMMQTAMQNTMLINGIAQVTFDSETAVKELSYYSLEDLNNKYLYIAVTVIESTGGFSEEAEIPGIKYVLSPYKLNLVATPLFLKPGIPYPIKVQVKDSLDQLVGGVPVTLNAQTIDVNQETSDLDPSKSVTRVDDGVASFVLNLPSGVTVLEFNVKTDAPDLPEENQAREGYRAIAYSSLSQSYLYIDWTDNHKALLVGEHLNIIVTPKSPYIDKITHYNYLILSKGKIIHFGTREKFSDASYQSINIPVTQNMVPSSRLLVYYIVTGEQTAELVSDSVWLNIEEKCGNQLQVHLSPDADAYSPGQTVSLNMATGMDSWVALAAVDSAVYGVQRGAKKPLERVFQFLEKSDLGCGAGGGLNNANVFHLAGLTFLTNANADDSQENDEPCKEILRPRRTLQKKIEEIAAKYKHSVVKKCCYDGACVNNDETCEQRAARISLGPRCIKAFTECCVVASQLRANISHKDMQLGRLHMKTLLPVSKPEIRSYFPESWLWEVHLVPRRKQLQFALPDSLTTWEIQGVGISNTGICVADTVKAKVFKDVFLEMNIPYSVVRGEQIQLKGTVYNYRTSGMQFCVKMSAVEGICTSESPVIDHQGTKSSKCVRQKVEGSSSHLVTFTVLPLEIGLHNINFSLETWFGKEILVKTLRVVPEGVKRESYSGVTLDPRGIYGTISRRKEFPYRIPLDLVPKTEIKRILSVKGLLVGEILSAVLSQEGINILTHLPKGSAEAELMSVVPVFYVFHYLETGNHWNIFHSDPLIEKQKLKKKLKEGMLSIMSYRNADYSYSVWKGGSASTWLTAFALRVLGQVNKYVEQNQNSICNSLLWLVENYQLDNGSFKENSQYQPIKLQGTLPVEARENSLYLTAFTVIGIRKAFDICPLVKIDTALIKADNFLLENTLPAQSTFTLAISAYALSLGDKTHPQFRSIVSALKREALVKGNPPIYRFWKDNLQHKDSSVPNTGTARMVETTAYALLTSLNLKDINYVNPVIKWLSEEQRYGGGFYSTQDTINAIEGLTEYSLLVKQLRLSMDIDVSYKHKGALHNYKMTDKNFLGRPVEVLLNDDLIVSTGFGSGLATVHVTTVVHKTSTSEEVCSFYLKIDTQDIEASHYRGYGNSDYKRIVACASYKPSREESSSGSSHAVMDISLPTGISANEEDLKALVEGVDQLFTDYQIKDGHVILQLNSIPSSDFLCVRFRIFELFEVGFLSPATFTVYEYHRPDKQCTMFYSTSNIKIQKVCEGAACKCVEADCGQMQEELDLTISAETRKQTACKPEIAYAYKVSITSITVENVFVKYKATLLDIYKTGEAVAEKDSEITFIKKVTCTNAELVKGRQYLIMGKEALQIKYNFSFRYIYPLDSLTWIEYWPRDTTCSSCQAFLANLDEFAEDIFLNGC

The target in the first assay is purified human C5 (Homo sapiens, UniProt P01031). The assay is described as follows: Red blood cell (RBC) hemolysis assay, optical, absorbance 412 nm (Example 10, Table 19). Particulars: antibody-sensitized sheep erythrocytes, […] human C5 depleted sera, 0.5 nM purified human C5, absorbance 412 nm; read-out: RBC Hemolysis IC50. It counts as cell-based.
purified human C5, sequence (P01031 19-1676): as above
Regarding `COc1ccc(NC(=O)NCc2ccnc3c2ccn3CCN2CCCS2(=O)=O)cc1OCCCC(C)C` [Compound C5INH-0411], the IC50 came out at 618 nM.
On the same count and under the same terms, to `COc1ccc(NC(=O)NCc2cccc3cn[nH]c23)cc1OCCCC(C)C` [Compound C5INH-0448] belongs 4290 nM.
Same read-out and setting: to `COc1ccc(OCCCC(C)C)cc1NC(=O)NC(CO)c1ccccc1` (stereo not shown) [Compound C5INH-0487] belongs 824 nM.
Consider `COc1ccc(NC(=O)NCc2ccnc3c2ccn3CC(=O)N2CCCCC2)cc1OCCCC(C)C` [Compound C5INH-0507], for which the half-inhibitory concentration (IC50) worked out at 185 nM.
With `COc1ccc(NC(=O)NCc2ccnc3c2ccn3CC(=O)N2CCOCC2)cc1OCCCC(C)C` [Compound C5INH-0508], the half-inhibitory concentration (IC50) turned out to be 72 nM.
Same read-out and setting: under `COc1cc(CNC(=O)C(C)(C)C)c(NC(=O)NCc2ccnc3[nH]ccc23)cc1OCCCC(C)C` [Compound C5INH-0509] stands 286 nM; under `COc1cc(CNC(=O)c2ccccc2)c(NC(=O)NCc2ccnc3[nH]ccc23)cc1OCCCC(C)C` [Compound C5INH-0510], 119 nM; under `COc1ccc(NC(=O)NC(C(=O)NO)c2cccc(OC)c2O)cc1OCCCC(C)C` (stereo not shown) [Compound C5INH-0512], 41.5 nM.
The same measure, in the same setting: to `COc1ccc(NC(=O)Nc2ccc3cc[nH]c3c2)cc1OCCCC(C)C` [Compound C5INH-0513] belongs 3320 nM.
On the same count and under the same terms, under `COc1ccc(NC(=O)NCc2c(F)cnc3c2ccn3CC(=O)N(C)C)cc1OCCCC(C)C` [Compound C5INH-0515] stands 1600 nM.
As to `COc1ccc(NC(=O)NCc2ccnc(NCCCN(C)C)c2OC)cc1OCCCC(C)C` [Compound C5INH-0532], the IC50 is 218 nM.
On to `COc1ccc(NC(=O)CN2CCOCC2)cc1CNC(=O)Nc1ccc(OC)c(OCCCC(C)C)c1` [Compound C5INH-0533], for which the IC50 is 671 nM.
As for `COc1ccc(NC(=O)NCc2ccnc3c2ccn3Cc2ccncc2)cc1OCCCC(C)C` [Compound C5INH-0540], the IC50 amounted to 432 nM.
As for `COc1ccc(NC(=O)NCc2cccc3c2OCCO3)cc1OCCCC(C)C` [Compound C5INH-0543], the IC50 was 373 nM.

Another assay concerns the target T1, Human C5 (Homo sapiens, UniProt P01031).
T1 construct: purchased Complement Technology
The assay is described as follows: Red blood cell (RBC) hemolysis assay, luminescent (Example 28, Table 32). It counts as cell-based. Particulars: sheep EA cells, 1.5% C5-depleted human serum, 0.5 nM human C5, 1 hour at 37° C., luminescence (Table 32).
Method: Sheep red blood cells coated with rabbit anti-sheep erythrocyte antiserum (EA cells; Complement Technology, Tyler, Tex.) were used to assay compound inhibitory activity of the classical complement activation pathway. Briefly, the EA cells were washed once and resuspended in the same volume of GVB++ buffer (Complement Technology, Tyler, Tex.). 25 μL of EA cells were then distributed into each well of 384-well tissue culture plates using Apricot iPipette Pro (Apricot Designs; Covina, Calif.). Compounds were tested in 10 points of final concentrations ranging from 16.67 μM to 1.65 μM in a 6-fold titration series. Compounds were dispensed into 384-well plates from 6.7 mM and 3.35 μM DMSO working stocks using an HP Digital Dispenser (HP; Corvallis, Oreg.). The reactions also contained 1.5% (v/v) C5-depleted human serum (Complement Technology). Hemolysis was induced by addition of human C5 (Complement Technology) at a concentration of 0.5 nM and plates were incubated for 1 hour at 37° C. in a cell culture incubator. The extent of hemolysis was measured by ability of released hemoglobin to catalyze luminol in the presence of hydrogen peroxide. Luminescence was then measured using a plate reader. Luminescence measurements were used to prepare a dose-response curve. From the curve, the half maximal inhibitory concentration (IC50) for each compound was determined, where the IC50 represents the concentration of each compound needed to reduce red blood cell hemolysis by half.
In turn, `COc1cc(CC(=O)N2CCNC(=O)C2)ccc1CN1C(=O)N(c2ccc(OC)c(OCCCC3CC3)c2)CC[C@@H]1C` [SC0118] yielded an IC50 of 1.4 nM.
Compound `COc1cc(CC(=O)N(C)[C@@H]2CCNC2)ccc1CN1C(=O)N(c2ccc(OC)c(OCCCC3CC3)c2)CC[C@@H]1C` [SC0121] displayed an IC50 of 1.5 nM.
The compound `CCCCCOc1cc(N2CC[C@H](C)N(Cc3ccnc4c3c(Cl)cn4CC(=O)N(C)OC)C2=O)ccc1OC` [SC0124] registered a 50% inhibitory concentration (IC50) of 1.6 nM.
The same measure, in the same setting: to `CCN1CC[C@@H](NC(=O)Cc2ccc(CN3C(=O)N(c4ccc(OC)c(OCCCC5CC5)c4)CC[C@@H]3C)c(OC)c2)C1` [SC0126] belongs 1.6 nM.
On to `CCCCCOc1cc(N2CC[C@H](C)N(Cc3ccnc4c3c(Cl)cn4CC(=O)N3CC[C@H](N(C)C)C3)C2=O)ccc1OC` [SC0129], for which the IC50 is 1.7 nM.
On the same count and under the same terms, to `COc1cc(CC(=O)N[C@@H]2CNC[C@@H]2F)ccc1CN1C(=O)N(c2ccc(OC)c(OCCCC3CC3)c2)CC[C@@H]1C` [SC0130] belongs 1.7 nM; to `CCCCCOc1cc(N2CC[C@H](C)N(Cc3ccnc4c3c(Cl)cn4CCOCCOCCOC)C2=O)ccc1OC` [SC0131], 1.7 nM.
Same read-out and setting: under `CCCCCOc1cc(N2CC[C@H](C)N(Cc3cccc4c3c(Cl)c(C)n4CC(=O)N(C)C)C2=O)ccc1OC` [SC0132] stands 1.7 nM; under `CCCCCOc1cc(N2CC[C@H](C)N(Cc3ccnc4c3c(Cl)cn4CC(=O)N3CC(O)(C(F)(F)F)C3)C2=O)ccc1OC` [SC0133], 1.7 nM.
Consider `COc1cc(CC(=O)N(C)C)ccc1CN1C(=O)N(c2ccc(OC)c(OCCCC3CC3)c2)CC[C@@H]1C` [SC0135], for which the concentration for half-maximal inhibition (IC50) worked out at 1.8 nM.
On the same count and under the same terms, under `COc1cc(CC(=O)N[C@@H]2CN(CCO)C[C@@H]2F)ccc1CN1C(=O)N(c2ccc(OC)c(OCCCC3CC3)c2)CC[C@@H]1C` [SC0136] stands 1.8 nM; under `COc1cc(Cc2cnccn2)ccc1CN1C(=O)N(c2ccc(OC)c(OCCCC3CC3)c2)CC[C@@H]1C` [SC0138], 1.8 nM; under `COc1cc(CC(=O)N2CCOCC2)ccc1CN1C(=O)N(c2ccc(OC)c(OCCCC3CC3)c2)CC[C@@H]1C` [SC0139], 1.9 nM.
The same measure, in the same setting: to `COc1cc(CC(=O)N2CC[C@@H](N(C)C)C2)ccc1CN1C(=O)N(c2ccc(OC)c(OCCCC3CC3)c2)CC[C@@H]1C` [SC0140] belongs 2.1 nM; to `CCN1CC[C@H](NC(=O)Cc2ccc(CN3C(=O)N(c4ccc(OC)c(OCCCC5CC5)c4)CC[C@@H]3C)c(OC)c2)C1` [SC0141], 2.1 nM; to `COc1cc(CC(=O)N2CCOC(CN(C)C)C2)ccc1CN1C(=O)N(c2ccc(OC)c(OCCCC3CC3)c2)CC[C@@H]1C` (stereo partly shown) [SC0142], 2.1 nM.
The same measure, in the same setting: under `CCCCCOc1cc(N2CC[C@H](C)N(Cc3ccnc4c3c(Cl)cn4CC(=O)N[C@H]3CCNC3)C2=O)ccc1OC` [SC0143] stands 2.1 nM.
`COc1ccc(N2CC[C@H](C)N(Cc3cccc4c3c(Cl)cn4CC(=O)N(C)C)C2=O)cc1OCCCCC1CC1` [SC0145] returned an IC50 of 2.1 nM.
On to `CCCCCOc1cc(N2CC[C@H](C)N(Cc3ccnc4c3c(Cl)cn4CCOCCOC)C2=O)ccc1OC` [SC0150], for which the IC50 came to 2.2 nM.
For `CCCCCOc1cc(N2CC[C@H](C)N(Cc3ccnc4c3c(Cl)cn4C3COC3)C2=O)ccc1OC` [SC0151], the IC50 is 2.2 nM.
On the same count and under the same terms, to `COc1cc(CC(=O)N[C@H]2CNC[C@H]2F)ccc1CN1C(=O)N(c2ccc(OC)c(OCCCC3CC3)c2)CC[C@@H]1C` [SC0152] belongs 2.3 nM.
The same measure, in the same setting: under `CCCCCOc1cc(N2CC[C@H](C)N(Cc3ccc(CC(=O)N4CCOC(CN(C)C)C4)cc3OC)C2=O)ccc1OC` (stereo partly shown) [SC0153] stands 2.3 nM; under `COc1cc(Cc2ncccn2)ccc1CN1C(=O)N(c2ccc(OC)c(OCCCC3CC3)c2)CC[C@@H]1C` [SC0157], 2.6 nM.
`COc1cc(CC(=O)N[C@H]2CN(C(=O)OC(C)(C)C)C[C@H]2F)ccc1CN1C(=O)N(c2ccc(OC)c(OCCCC3CC3)c2)CC[C@@H]1C` [SC0160] showed an IC50 of 2.7 nM.
Still for that read-out and setting: under `COc1cc(CC(=O)N(C)[C@H]2CCNC2)ccc1CN1C(=O)N(c2ccc(OC)c(OCCCC3CC3)c2)CC[C@@H]1C` [SC0161] stands 2.8 nM; under `COc1cc(CC(=O)N(C)[C@H]2CCN(CCF)C2)ccc1CN1C(=O)N(c2ccc(OC)c(OCCCC3CC3)c2)CC[C@@H]1C` [SC0165], 3 nM; under `COc1cc(CC(=O)N[C@@H]2CCNC2)ccc1CN1C(=O)N(c2ccc(OC)c(OCCCC3CC3)c2)CC[C@@H]1C` [SC0166], 3.1 nM.
The same measure, in the same setting: under `CCCCCOc1cc(N2CC[C@H](C)N(Cc3ccc(CC(=O)N(C)C)cc3OC)C2=O)ccc1OC` [SC0173] stands 4.2 nM; under `CCCCCOc1cc(N2CC[C@H](C)N(Cc3ccnc4c3c(Cl)cn4CC(=O)N(C)C)C2=O)c(F)cc1OC` [SC0175], 4.4 nM.
On the same count and under the same terms, to `CCCCCOc1cc(N2C[C@H](CO)CN(Cc3ccc(CC(=O)N(C)C)cc3OC)C2=O)ccc1OC` [SC0176] belongs 4.5 nM.
Take `COc1cc(CCO)ccc1CN1C(=O)N(c2ccc(OC)c(OCCCC3CC3)c2)CC[C@@H]1C` [SC0180]: the IC50 turned out to be 4.9 nM.
Still for that read-out and setting: under `CCCCCOc1cc(N2CC[C@H](C)N(Cc3cccc4c3c(Cl)c(Cl)n4CC(=O)N(C)C)C2=O)ccc1OC` [SC0181] stands 5.1 nM.
The same measure, in the same setting: to `COc1cc(CCN2CCOCC2)ccc1CN1C(=O)N(c2ccc(OC)c(OCCCC3CC3)c2)CC[C@@H]1C` [SC0182] belongs 5.2 nM; to `COc1cc(CC(=O)N[C@@H]2CN(C(=O)OC(C)(C)C)C[C@@H]2F)ccc1CN1C(=O)N(c2ccc(OC)c(OCCCC3CC3)c2)CC[C@@H]1C` [SC0185], 5.7 nM; to `COc1cc(CC(=O)N[C@@H]2CCN(C(=O)OC(C)(C)C)C2)ccc1CN1C(=O)N(c2ccc(OC)c(OCCCC3CC3)c2)CC[C@@H]1C` [SC0187], 6.1 nM.
Still for that read-out and setting: under `COc1cc(CC(=O)N(C)[C@H]2CCN(C(=O)OC(C)(C)C)C2)ccc1CN1C(=O)N(c2ccc(OC)c(OCCCC3CC3)c2)CC[C@@H]1C` [SC0188] stands 6.4 nM; under `CCCCCOc1cc(N2CC(CO)CN(Cc3ccc(CNC(C)=O)cc3OC)C2=O)ccc1OC` (stereo not shown) [SC0189], 7 nM.
Compound `COc1cc(CC(=O)N2CCCC2)ccc1CN1CC(C)CN(c2ccc(OC)c(OCCCC3CC3)c2)C1=O` (stereo not shown) [SC0191] had an IC50 of 7.3 nM.
The same measure, in the same setting: to `COc1cc(CC(=O)O)ccc1CN1C(=O)N(c2ccc(OC)c(OCCCC3CC3)c2)CC[C@@H]1C` [SC0192] belongs 7.8 nM.
On the same count and under the same terms, to `CCCCCOc1cc(N2C[C@H](C)CN(Cc3ccc(CC(=O)N4CCOCC4)cc3OC)C2=O)ccc1OC` [SC0193] belongs 8.3 nM; to `COc1cc(CC(=O)N(C)C)ccc1CN1CC(C)CN(c2ccc(OC)c(OCCCC3CC3)c2)C1=O` (stereo not shown) [SC0194], 8.5 nM.
Still for that read-out and setting: to `CCCCCOc1cc(N2CC[C@H](C)N(Cc3cccc(OC)c3O)C2=O)ccc1OC` [SC0195] belongs 8.5 nM; to `COc1cc(CCN2CC3(COC3)C2)ccc1CN1C(=O)N(c2ccc(OC)c(OCCCC3CC3)c2)CC[C@@H]1C` [SC0196], 8.6 nM; to `CCCCCOc1cc(N2CC[C@H](C)N(Cc3ccc(CCO)cc3OC)C2=O)ccc1OC` [SC0197], 9.1 nM.
For `CCCCCOc1cc(N2CC(C)CN(Cc3ccc(CNC(C)=O)cc3OC)C2=O)ccc1OC` (stereo not shown) [SC0198], the midpoint of inhibition, the IC50, lay at 9.7 nM.
On the same count and under the same terms, under `CCCCCOc1cc(N2CC(C(N)=O)CN(Cc3ccc(CNC(C)=O)cc3OC)C2=O)ccc1OC` (stereo not shown) [SC0199] stands 9.8 nM.
The same measure, in the same setting: to `CCCCCOc1cc(N2CC(C)CN(Cc3ccc(CNC(=O)OC)cc3OC)C2=O)ccc1OC` (stereo not shown) [SC0200] belongs 9.9 nM; to `CCCCCOc1cc(N2C[C@@H](C)CN(Cc3ccc(CC(=O)N4CCOCC4)cc3OC)C2=O)ccc1OC` [SC0201], 10 nM.
The same measure, in the same setting: under `COc1cc(CC(=O)N(C)[C@@H]2CCN(C(=O)OC(C)(C)C)C2)ccc1CN1C(=O)N(c2ccc(OC)c(OCCCC3CC3)c2)CC[C@@H]1C` [SC0202] stands 10.1 nM.
Regarding `COc1ccc(N2CC[C@H](C)N(Cc3cccc4c3ccn4CC(=O)N(C)C)C2=O)cc1OCCCCC1CC1` [SC0203], inhibition was half-maximal at 10.2 nM (IC50).
